# Data reported in patent US4921861A, “Pharmaceutical compositions” (BASF Aktiengesellschaft, priority 1987, dated 1990).
# “Also recorded” adds a separate entry of the source. Like-named read-outs stand apart in the source and are kept apart here.
# How the values were obtained:
# [1] = tested on: inactine narcosis time; test: narcosis potentiating effect, inactine narcosis; assay type: in vivo, rats
# Text: (§1) The pharmacological activity of 3-amino-4-ethylthio-quinoline is substantiated by the following tests. As test compound 3-amino-4-ethylthio-quinoline-hydrochloride (referred to further as "Compound A") is used.
# (§2) The narcosis potentiating effect of Compound A (on rats) is very strong if inactine is used.
# [2] = tested on: spasms induced by tetracor; test: spasmolytic effect on spasms induced by tetracor; assay type: in vivo
# Text: as §1
# [3] = tested on: rats; test: conflict test: anxiolytic (punished) and sedative (unpunished) effect on water consumption; assay type: in vivo, Male CFY rats; details: for water uptake, without electric current / water uptake, with electric current: 0.5 hour; for minimal effective dose: Rattus norvegicus, sc, s.c.
# Experimental: as §1
# Anxiolytic and sedative effects are studied according to the following conflict test. […] On the other hand, sedative effect can be observed but in a dose of 25 mg/kg. Thus the ratio of the anxiolytic and sedative doses amounts to 25,000: 2.5=10,000. The same value of chlordiazepoxide is 10:0.1=100. It appears that in the case of Compound A the dissociation between the sedative and anxiolytic doses is extremely high.
# The essential strategy for measuring the anti-anxiety effect of a drug is to check its activity in a conflict situation. We elicit a rewarded response, then suppress that response by punishing it when it occurs and the anti-anxiety effect is measured by the drug-induced increase in punished responding, whereas the sedative effect is measured by the drug-induced decrease of unpunished responding.
# A rat, deprived of food for 96 hours and supplied with water ad libitum, drinks about 7 ml water during the 4th day of food deprivation, but needs 35 ml water daily when supplied with dry food [for review see Knoll, J. J., Neural Transm. 59, 163-194 (1984)]. This means that when we circuit the drinking tube and the grid floor of the cage and the rat is regularly shocked by trying to drink, the very hungry animal, which cannot eat without drinking, is maximally forced to overcome the hindrance. This is a sensitive test to check the anti-anxiety effect of a compound.
# Male CFY rats, weighing 230-250 g, fed with standard food pellets and supplied with tap water ad libitum, were kept under controlled standard environmental conditions (room temperature between 22°-24° C.) in groups of ten for two weeks until used in the experiment. The rats kept in single cages during starvation were deprived of food for 96 hours and supplied with tap water ad libitum before the experiment.
# Another aspect of the selection of the animals for the experiment was their visible physical fitness and normal activity after starvation. Less than 10 percent of the rats were excluded from the experiment because of insufficient physical fitness.
# A clear Plexiglass box (39×27×12 cm) with a stainless-steel grid floor supplied with a tray for the food pellets and with a drinking tube was used for the experiment. The grid floor, the drinking tube and an electric stimulator (Grass S48) were connected and electric shocks in this circuit were delivered for 10 s duration with 20 s intervals. The parameters of the current (100V; 25 ohm; 7.5 ms; 5 Hz) were empirically selected using those electric shocks which inhibited the water consumption of the very hungry rats to one third of the control (unpunished) level.
# The rats spend one hour in the apparatus after 96 hours of food deprivation. The very hungry rats eat 5-6 g of food pellets during the first hour of the feeding period after the long starvation. […] In the punished situation the consumption was reduced to less than 3 ml.
# The drugs were administered parenterally in doses of 0.5 ml/100 g body weight. We refrained from the oral administration of the compounds because of the long term food deprivation.
# [4] = acute toxicity (LD50); details: rat, in vivo, rats
# Text: as §1
# [5] = "hot-plate" test; assay type: in vivo
# Text: as §1
# [6] = tested on: rats; test: algolytic test; assay type: in vivo
# Text: as §1
# Compound A is ineffective in the algolytic test (on rats).
# [7] = tested on: hexobarbital narcosis time; test: narcosis potentiating effect, hexobarbital narcosis; assay type: in vivo, rats; details: compared with inactine
# Text: as §1, §2
# [8] = tested on: calypsol narcosis time; test: narcosis time of non-barbiturate phenyclidine derivative (calypsol); assay type: in vivo, rats
# [9] = tested on: unconditioned avoidance reflex; test: modified jumping test; assay type: in vivo; details: 50 and 100 mg p.o.
# Text: as §1
# [10] = tested on: spontaneous motility; test: spontaneous motility; assay type: in vivo; details: rats
# Text: as §1
# [11] = tested on: one-way conditioned avoidance; test: one-way conditioned avoidance test (screening test I); assay type: in vivo; details: 100 mg/kg p.o.
# Text: as §1
# [12] = tested on: two-way conditioned avoidance reflex; test: shuttle box (two-way conditioned avoidance reflex); assay type: in vivo; details: rats, 100 mg/kg p.o.
# Text: as §1
# [13] = tested on: metabolism; test: influence on metabolism; assay type: in vivo; details: rats, 100 mg/kg p.o.
# Text: as §1
# [14] = tested on: benzodiazepine receptors; test: displacement of diazepame from benzodiazepine receptors; assay type: binding
structure (smiles),measurement,setting,value
CCSc1c(N)cnc2ccccc12 [3-amino-4-ethylthio-quinoline],narcosis potentiating effect,[1]; general statement,particularly potent anxiolytic and narcosis potentiating effect
same,anticonvulsive effect,[2]; general statement,devoid of sedative and anticonvulsive effects
same,anxiolytic effect,[3]; general statement,particularly potent anxiolytic; also recorded: highly selective anxiolytic effect
same,sedative effect,[3]; general statement,devoid of sedative
"CCSc1c(N)cnc2ccccc12.Cl [Compound A, 3-amino-4-ethylthio-quinoline-hydrochloride]",LD50,[4]; sc,320 mg/kg
same,LD50,[4]; oral,420 mg/kg
same,ED50,[5]; oral,49 mg/kg
same,ED50,[5]; sc,40 mg/kg
same,activity in the algolytic test,[6],ineffective
same,ED500 (dose which causes a five-fold prolongation of the inactine narcosis time),"[1]; p.o., rats",3.4 mg/kg
same,narcosis potentiating effect,"[1]; rats, inactine",very strong
same,ED500 (dose which causes a five-fold prolongation of the inactine narcosis time),"[1]; s.c., rats",3.5 mg/kg
same,prolongation of hexobarbital narcosis time,[7],to a much weaker extent
same,effect on narcosis time of calypsol,[8],does not lengthen the narcosis time
same,spasmolytic effect on spasms induced by tetracor,[2]; 25 and 100 mg/kg p.o.,no spasmolytic effect
same,inhibition of the unconditioned avoidance reflex,[9],does not inhibit
same,inhibition of spontaneous motility,[10]; 25 mg/kg,inactive
same,inhibition of spontaneous motility,[10]; 50 and 100 mg/kg p.o.,moderately in a dose-independant manner
same,inhibiting effect in one-way conditioned avoidance test,[11],very weak inhibiting effect
same,inhibition of learning ability,[12],inhibits learning ability on rats significantly
same,influence on metabolism,[13],does not influence metabolism
same,"water uptake, without electric current","[3]; 0.25 mg/kg s.c., 10 animals",6.1 ± 0.46 mL
same,"water uptake, with electric current","[3]; 0.25 mg/kg s.c., 10 animals, p < 0.05",3.3 ± 0.45 mL
same,"water uptake, without electric current","[3]; 5 mg/kg s.c., 10 animals",7.2 ± 0.37 mL
same,"water uptake, without electric current","[3]; 10 mg/kg s.c., 10 animals",6.9 ± 0.43 mL
same,"water uptake, without electric current","[3]; 25 mg/kg s.c., 7 animals, p < 0.01",3.4 ± 0.60 mL
same,"water uptake, with electric current","[3]; 2.5 γ/kg s.c., 10 animals, p < 0.05",3.4 ± 0.43 mL
same,"water uptake, with electric current","[3]; 5 γ/kg s.c., 10 animals, p < 0.001",4.1 ± 0.66 mL
same,"water uptake, with electric current","[3]; 10 γ/kg s.c., 10 animals",2.7 ± 0.33 mL
same,"water uptake, with electric current","[3]; 25 γ/kg s.c., 10 animals",2.8 ± 0.38 mL
same,minimal effective dose,"[3]; with electric current, read-out: dose significantly increasing water consumption punished by trains of electric shock (anxiolytic dose)",0.0025 mg/kg
same,minimal effective dose,"[3]; without electric current, read-out: dose at which sedative effect can be observed",25 mg/kg
same,anxiolytic effect,[3]; general statement,extremely active anxiolytic agent
same,ratio of the anxiolytic and sedative doses,[3],"10,000"
same,displacement of diazepame from the benzodiazepine receptors,[14],displaces diazepame from the benzodiazepine receptors
"CNC1=Nc2ccc(Cl)cc2C(c2ccccc2)=[N+]([O-])C1 [chlordiazepoxide, reference compound]",ratio of the anxiolytic and sedative doses,[3],100
